Results on 39 molecules are retold here after ChEMBL document CHEMBL5154871, “Non-peptidyl non-covalent cathepsin C inhibitoEEr bearing a unique thiophene-substituted pyridine: Design, structure-activity relationship and anti-inflammatory activity in vivo” (Eur J Med Chem, 2022).

Molecules are shown by their SMILES.

Test [1] concerns the target T1, Dipeptidyl peptidase 1 (Homo sapiens, UniProt P53634). The test is described as follows: Inhibition of human recombinant Cathepsin C using H-Gly-Arg-AMC as substrate pretreated for 30 mins followed by substrate addition and incubated for 60 mins by microplate reader assay.
Test [2] addresses T1, Dipeptidyl peptidase 1. The test is described as follows: Inhibition of Cathepsin C in human THP-1 cells using H-Gly-Phe-AFC as substrate pretreated for 1 hr followed by substrate addition and incubated for 60 mins by microplate reader assay. The format is cell-based.
The target in test [3] is T1, Dipeptidyl peptidase 1. Briefly: Inhibition of Cathepsin C in human U-937 cells using H-Gly-Phe-AFC as substrate pretreated for 1 hr followed by substrate addition and incubated for 60 mins by microplate reader assay. The format is cell-based.
Test [4] addresses Cathepsin B (Homo sapiens, UniProt P07858). Briefly: Inhibition of human recombinant Cathepsin B using Z-Leu-Arg-AMC as substrate pretreated for 60 mins followed by substrate addition and incubated for 30 mins by microplate reader assay.

T1 sequence (P53634 25-134 limits assumed): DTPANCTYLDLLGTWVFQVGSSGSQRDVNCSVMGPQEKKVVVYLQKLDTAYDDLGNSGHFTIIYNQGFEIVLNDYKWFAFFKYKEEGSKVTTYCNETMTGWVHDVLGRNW
T1 sequence (P53634 231-394 limits assumed): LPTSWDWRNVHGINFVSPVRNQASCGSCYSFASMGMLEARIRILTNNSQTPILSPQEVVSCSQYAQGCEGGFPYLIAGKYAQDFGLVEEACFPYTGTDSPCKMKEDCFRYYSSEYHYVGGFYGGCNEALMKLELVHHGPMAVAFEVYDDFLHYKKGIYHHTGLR
T1 sequence (P53634 395-463 limits assumed): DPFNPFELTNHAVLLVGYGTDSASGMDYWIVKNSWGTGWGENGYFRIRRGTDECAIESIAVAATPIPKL

Take `FC(F)(F)c1cccc(Nc2nc(Nc3ccc(-c4ccco4)cn3)ncc2Cl)c1`: the IC50 in test [1], in test [2] and in test [3] was greater than 5000 nM in each case.
Regarding `FC(F)(F)Oc1ccc(Nc2nc(Nc3ccc(-c4ccsc4)cn3)ncc2Cl)cc1`, the figures for the IC50 in test [1], in test [2] and in test [3] were 92.4 nM, 110 nM and 154 nM, respectively.
The corresponding values for `CS(=O)(=O)c1ccc(-c2cnc(Nc3ccc(-c4ccsc4)cn3)nc2Nc2cccc(C(F)(F)F)c2)cc1` are greater than 5000 nM, greater than 5000 nM and greater than 5000 nM.
On to `CC(=O)c1cccc(-c2cnc(Nc3ccc(-c4ccsc4)cn3)nc2Nc2cccc(C(F)(F)F)c2)c1`, for which the values for the IC50 in test [1], in test [2] and in test [3] were 156 nM, 308 nM and 228 nM, respectively.
For `Clc1cnc(Nc2ccc(-c3ccsc3)cn2)nc1Nc1ccccn1`, the IC50 in test [1] is 102 nM; in test [2], 141 nM; in test [3], 155 nM.
For `Nc1ccc(-c2cnc(Nc3ccc(-c4ccsc4)cn3)nc2Nc2cccc(C(F)(F)F)c2)cc1` the same measures were greater than 5000 nM, greater than 5000 nM and greater than 5000 nM.
`FC(F)(F)Oc1cccc(Nc2nc(Nc3ccc(-c4ccsc4)cn3)ncc2Cl)c1`: the figures for the IC50 in test [1], in test [2] and in test [3] were 252 nM, 180 nM and 246 nM, respectively.
The corresponding values for `FC(F)(F)c1cccc(Nc2nc(Nc3ccc(-c4ccsc4)cn3)ncc2-c2ccc(Cl)cc2)c1` are 216 nM, 288 nM and 356 nM.
For `NC(=O)c1ccc(-c2cnc(Nc3ccc(-c4ccsc4)cn3)nc2Nc2cccc(C(F)(F)F)c2)cc1` the same measures were 133 nM, 357 nM and 285 nM.
With `CC(=O)Nc1ccc(Nc2nc(Nc3ccc(-c4ccsc4)cn3)ncc2Cl)cc1`, the figures for the IC50 in test [1], in test [2] and in test [3] were 76.4 nM, 63.9 nM and 99.9 nM, respectively.
As to `FC(F)(F)c1cccc(Nc2nc(Nc3ccc(-c4cccs4)cn3)ncc2Cl)c1`, the half-inhibitory concentration (IC50) in test [1] was determined as 128 nM; in test [2] it was 129 nM; in test [3], 396 nM.
The corresponding values for `FC(F)(F)c1cccc(Nc2nc(Nc3ccc(-c4ccsc4)cn3)ncc2-c2ccncc2)c1` are greater than 5000 nM, greater than 5000 nM and greater than 5000 nM.
The corresponding values for `NC(=O)c1cccc(-c2cnc(Nc3ccc(-c4ccsc4)cn3)nc2Nc2cccc(C(F)(F)F)c2)c1` are greater than 5000 nM, greater than 5000 nM and greater than 5000 nM.
For `CC(=O)Nc1ccc(-c2cnc(Nc3ccc(-c4ccsc4)cn3)nc2Nc2cccc(C(F)(F)F)c2)cc1` the same measures were 61.8 nM, 102 nM and 86.5 nM.
Regarding `Fc1ccc(Nc2nc(Nc3ccc(-c4ccsc4)cn3)ncc2Cl)cc1F`, the IC50 in test [1] was 99.8 nM; in test [2], 159 nM; in test [3], 174 nM.
In the case of `FC(F)(F)c1ccc(Nc2nc(Nc3ccc(-c4ccsc4)cn3)ncc2Cl)cc1`, the IC50 worked out at 105 nM in test [1], 184 nM in test [2] and 150 nM in test [3].
As to `CN1CCN(Cc2ccc(-c3cnc(Nc4ccc(-c5ccsc5)cn4)nc3Nc3cccc(C(F)(F)F)c3)cc2)CC1`, the IC50 in test [1], in test [2] and in test [3] was greater than 5000 nM each time.
Regarding `CN1CC=C(c2cnc(Nc3ccc(-c4ccsc4)cn3)nc2Nc2cccc(C(F)(F)F)c2)CC1`, the concentration for half-maximal inhibition (IC50) in test [1], in test [2] and in test [3] was greater than 5000 nM throughout.
Regarding `FC(F)(F)c1cccc(Nc2nc(Nc3ccc(-c4ccsc4)cn3)ncc2-c2ccoc2)c1`, the IC50 in test [1], in test [2] and in test [3] was greater than 5000 nM in each case.
Take `Fc1ccc(Nc2nc(Nc3ccc(-c4ccsc4)cn3)ncc2Cl)cc1`: the half-maximal inhibitory concentration (IC50) in test [1] amounted to 128 nM; in test [2] it was 105 nM; in test [3] it was 134 nM.
The corresponding values for `FC(F)(F)c1cccc(Nc2nc(Nc3ccc(-c4ccsc4)nn3)ncc2Cl)c1` are 90.6 nM, 89.5 nM and 181 nM.
For the molecule `Fc1ccc(Nc2nc(Nc3ccc(-c4ccsc4)cn3)ncc2Cl)cc1C(F)(F)F`, the IC50 amounted to 142 nM in test [1], 170 nM in test [2] and 200 nM in test [3].
For `CC(=O)Nc1cccc(-c2cnc(Nc3ccc(-c4ccsc4)cn3)nc2Nc2cccc(C(F)(F)F)c2)c1`, the IC50 in test [1], in test [2] and in test [3] was greater than 5000 nM in each case.
With `FC(F)(F)c1cccc(Nc2nc(Nc3cnc(-c4ccsc4)cn3)ncc2Cl)c1`, the half-maximal inhibitory concentration (IC50) in test [1], in test [2] and in test [3] was greater than 5000 nM throughout.
With `FC(F)(F)c1ccc(CNc2nc(Nc3ccc(-c4ccsc4)cn3)ncc2Cl)cc1`, the figures for the IC50 in test [1], in test [2] and in test [3] were 69.4 nM, 89.8 nM and 92.2 nM, respectively.
Regarding `FC(F)(F)c1cccc(Nc2nc(Nc3ccc(-c4ccsc4)nc3)ncc2Cl)c1`, the 50% inhibitory concentration (IC50) in test [1] is 103 nM; in test [2], 160 nM; in test [3], 216 nM.
For `Cn1cc(-c2cnc(Nc3ccc(-c4ccsc4)cn3)nc2Nc2cccc(C(F)(F)F)c2)cn1` the same measures were 248 nM, greater than 3000 nM and 416 nM.
The corresponding values for `Clc1cnc(Nc2ccc(-c3ccsc3)cn2)nc1NC1CCNCC1` are 91.5 nM, 120 nM and 169 nM.
For `FC(F)(F)c1cccc(Nc2nc(Nc3ccc(-c4ccsc4)cn3)ncc2-c2ccccc2)c1` the same measures were greater than 5000 nM, greater than 5000 nM and greater than 5000 nM.
On to `FC(F)(F)c1cccc(Nc2nc(Nc3ccc(-c4ccsc4)cn3)ncc2-c2cccc(Cl)c2)c1`, for which the half-inhibitory concentration (IC50) in test [1], in test [2] and in test [3] was greater than 5000 nM throughout.
For `O=[N+]([O-])c1cc(-c2ccsc2)cnc1Nc1ncc(Cl)c(Nc2cccc(C(F)(F)F)c2)n1`, the figures for the IC50 in test [1], in test [2] and in test [3] were 152 nM, 197 nM and 276 nM, respectively.
For `CN1CCN(c2ccc(-c3cnc(Nc4ccc(-c5ccsc5)cn4)nc3Nc3cccc(C(F)(F)F)c3)cc2)CC1` the same measures were greater than 5000 nM, greater than 5000 nM and greater than 5000 nM.
Consider `FC(F)(F)c1cccc(Nc2nc(Nc3cccc(-c4ccsc4)c3)ncc2Cl)c1`, for which the IC50 in test [1] was 65.6 nM; in test [2], 203 nM; in test [3] it was 178 nM; in test [4] it was greater than 5000 nM.
For the molecule `FC(F)(F)c1cccc(Nc2nc(Nc3ccc(-c4ccsc4)cc3)ncc2Cl)c1`, the 50% inhibitory concentration (IC50) in test [1], in test [2] and in test [3] was greater than 5000 nM throughout.
Regarding `Nc1ccc(Nc2nc(Nc3ccc(-c4ccsc4)cn3)ncc2Cl)cc1`, the IC50 was 57 nM in test [1], 111 nM in test [2], 89.5 nM in test [3] and greater than 5000 nM in test [4].
On to `FC(F)(F)c1cccc(Nc2nc(Nc3ncc(-c4ccsc4)cn3)ncc2Cl)c1`, for which the half-maximal inhibitory concentration (IC50) in test [1], in test [2] and in test [3] was greater than 5000 nM in each case.
Take `Nc1cccc(Nc2nc(Nc3ccc(-c4ccsc4)cn3)ncc2Cl)c1`: the 50% inhibitory concentration (IC50) was determined as 132 nM in test [1], 156 nM in test [2] and 127 nM in test [3].
For `FC(F)(F)c1cccc(Nc2nc(Nc3ccc(-c4ccsc4)cn3)ncc2Br)c1` the same measures were 98.6 nM, 203 nM and 180 nM.
The corresponding values for `FC(F)(F)c1cccc(Nc2nc(Nc3cc(-c4ccsc4)ccn3)ncc2Cl)c1` are 77.9 nM, 260 nM and 155 nM.

As a reminder, the IC50 is the concentration that gives 50% inhibition.
